Consider five compounds from patent EP0390558B1, “Aromatase inhibiting 4(5)-imidazoles” (ORION-YHTYMÄ OY, priority 1989, dated 1990).

pIC50: −log10 of the molar value.

The assay addresses T1, Human aromatase enzyme (Homo sapiens, UniProt P11511).
T1 construct: The enzyme preparation was used without further purification; from tissue; host or cells: human placenta, microsomal fraction (100000 x g precipitate)
T1 sequence (P11511 1-503): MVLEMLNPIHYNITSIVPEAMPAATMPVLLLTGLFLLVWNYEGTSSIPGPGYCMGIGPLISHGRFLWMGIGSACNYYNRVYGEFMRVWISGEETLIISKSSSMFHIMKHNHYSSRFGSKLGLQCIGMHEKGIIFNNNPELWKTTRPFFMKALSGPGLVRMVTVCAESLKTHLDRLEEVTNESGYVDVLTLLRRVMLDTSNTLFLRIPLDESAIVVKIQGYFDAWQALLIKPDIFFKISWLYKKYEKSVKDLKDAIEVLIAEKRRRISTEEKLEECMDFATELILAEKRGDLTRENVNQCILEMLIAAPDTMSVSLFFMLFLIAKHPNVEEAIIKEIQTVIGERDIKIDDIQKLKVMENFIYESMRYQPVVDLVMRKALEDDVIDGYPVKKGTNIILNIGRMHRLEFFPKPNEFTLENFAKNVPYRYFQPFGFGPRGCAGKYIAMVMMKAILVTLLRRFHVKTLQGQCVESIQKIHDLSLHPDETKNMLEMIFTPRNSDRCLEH
Kind of assay: In vitro aromatase inhibition assay (3H2O release from 1,2[3H]-androstene-3,17-dione). In kind it is biochemical.
Consider `Cc1cc(C)cc(CCCCC(c2ccc(F)cc2)c2c[nH]cn2)c1` (centres unmarked) [Compound 5b, 4-[5-(3,5-dimethylphenyl)-1-(4-fluorophenyl)-pentyl]-1H-imidazole], for which the pIC50 was 5.12.

`c1ccc(CCC(c2ccccc2)c2cncn2Cc2ccccc2)cc1` (centres unmarked) [Compound 8b, 1-benzyl-5-(1,3-diphenylpropyl)-1H-imidazole] gave a pIC50 of 4.52. This pIC50 lies 0.60 log units lower than the previous one.

Take `COc1cccc(CCCCC(c2ccc(F)cc2)c2c[nH]cn2)c1` (centres unmarked) [Compound 11b, 4-[1-(4-fluorophenyl)-5-(3-methoxyphenyl)pentyl]-1H-imidazole]: the negative-log IC50 (pIC50) was 5.59.

For the compound `COc1ccc(CCCCC(c2ccc(F)cc2)c2c[nH]cn2)cc1` (centres unmarked) [Compound 12b, 4-[1-(4-fluorophenyl)-5-(4-methoxyphenyl)pentyl]-1H-imidazole], the pIC50 was 5.52.

`Cc1cccc(C)c1CCCCC(c1ccc(F)cc1)c1c[nH]cn1` (centres unmarked) [Compound 13b, 4-[1-(4-fluorophenyl)-5-(2,6-dimethylphenyl)-pentyl]-1H-imidazole] gave a negative logarithm of the IC50 (pIC50) of 5.11.

By pIC50 is commonly meant the negative decadic logarithm of the IC50, by convention in mol/L. A higher pIC50 goes with a low IC50.
